Source: US8410132B2, “Modulators of cystic fibrosis transmembrane conductance regulator” (Vertex Pharmaceuticals Incorporated, priority 2007, dated 2013)

Biological target: T1, ΔF508-CFTR (Homo sapiens, UniProt P13569, DEL508-508)
T1 construct: expressed in transfected cells; host or cells: Fisher rat epithelial (FRT) cells expressing ΔF508-CFTR (Ussing chamber); NIH3T3 cells stably expressing ΔF508-CFTR (whole-cell recordings)
Test: Assay for detecting and measuring ΔF508-CFTR potentiation properties of compounds (membrane potential optical method / Ussing chamber)
Type: cell-based
Settings: for Emax: relative efficacy, efficacy compared to that of the known potentiator genistein; for EC50: ΔF508-CFTR potentiation
Text: Assays for Detecting and Measuring ΔF508-CFTR Potentiation Properties of Compounds
Membrane Potential Optical Methods for Assaying ΔF508-CFTR Modulation Properties of Compounds
The optical membrane potential assay utilized voltage-sensitive FRET sensors described by Gonzalez and Tsien (See, Gonzalez, J. E. and R. Y. Tsien (1995) “Voltage sensing by fluorescence resonance energy transfer in single cells” Biophys J 69(4): 1272-80, and Gonzalez, J. E. and R. Y. Tsien (1997) “Improved indicators of cell membrane potential that use fluorescence resonance energy transfer” Chem Biol 4(4): 269-77) in combination with instrumentation for measuring fluorescence changes such as the Voltage/Ion Probe Reader (VIPR) (See, Gonzalez, J. E., K. Oades, et al. (1999) “Cell-based assays and instrumentation for screening ion-channel targets” Drug Discov Today 4(9): 431-439).
These voltage sensitive assays are based on the change in fluorescence resonant energy transfer (FRET) between the membrane-soluble, voltage-sensitive dye, DiSBAC2(3), and a fluorescent phospholipid, CC2-DMPE, which is attached to the outer leaflet of the plasma membrane and acts as a FRET donor. Changes in membrane potential (Vm) cause the negatively charged DiSBAC2(3) to redistribute across the plasma membrane and the amount of energy transfer from CC2-DMPE changes accordingly. The changes in fluorescence emission were monitored using VIPR™ II, which is an integrated liquid handler and fluorescent detector designed to conduct cell-based screens in 96- or 384-well microtiter plates.
Identification of Potentiator Compounds
Typical protocol utilized a basolateral to apical membrane Cl^− concentration gradient. To set up this gradient, normal ringers was used on the basolateral membrane and was permeabilized with nystatin (360 μg/ml), whereas apical NaCl was replaced by equimolar sodium gluconate (titrated to pH 7.4 with NaOH) to give a large Cl^− concentration gradient across the epithelium. All experiments were performed 30 min after nystatin permeabilization. Forskolin (10 μM) and all test compounds were added to both sides of the cell culture inserts. The efficacy of the putative ΔF508-CFTR potentiators was compared to that of the known potentiator, genistein.
Fisher rat epithelial (FRT) cells expressing ΔF508-CFTR (FRTΔ^F508-CFTR) were used for Ussing chamber experiments for the putative ΔF508-CFTR modulators identified from our optical assays. The cells were cultured on Costar Snapwell cell culture inserts and cultured for five days at 37° C. and 5% CO2 in Coon's modified Ham's F-12 medium supplemented with 5% fetal calf serum, 100 U/ml penicillin, and 100 μg/ml streptomycin. Prior to use for characterizing the potentiator activity of compounds, the cells were incubated at 27° C. for 16-48 hrs to correct for the ΔF508-CFTR. To determine the activity of corrections compounds, the cells were incubated at 27° C. or 37° C. with and without the compounds for 24 hours.
Compounds of the invention are useful as modulators of ATP binding cassette transporters. Table 3 below illustrates the EC50 and relative efficacy of certain embodiments in Table 1.

T1 sequence (P13569 with tags, fused parts or gaps DEL508-508): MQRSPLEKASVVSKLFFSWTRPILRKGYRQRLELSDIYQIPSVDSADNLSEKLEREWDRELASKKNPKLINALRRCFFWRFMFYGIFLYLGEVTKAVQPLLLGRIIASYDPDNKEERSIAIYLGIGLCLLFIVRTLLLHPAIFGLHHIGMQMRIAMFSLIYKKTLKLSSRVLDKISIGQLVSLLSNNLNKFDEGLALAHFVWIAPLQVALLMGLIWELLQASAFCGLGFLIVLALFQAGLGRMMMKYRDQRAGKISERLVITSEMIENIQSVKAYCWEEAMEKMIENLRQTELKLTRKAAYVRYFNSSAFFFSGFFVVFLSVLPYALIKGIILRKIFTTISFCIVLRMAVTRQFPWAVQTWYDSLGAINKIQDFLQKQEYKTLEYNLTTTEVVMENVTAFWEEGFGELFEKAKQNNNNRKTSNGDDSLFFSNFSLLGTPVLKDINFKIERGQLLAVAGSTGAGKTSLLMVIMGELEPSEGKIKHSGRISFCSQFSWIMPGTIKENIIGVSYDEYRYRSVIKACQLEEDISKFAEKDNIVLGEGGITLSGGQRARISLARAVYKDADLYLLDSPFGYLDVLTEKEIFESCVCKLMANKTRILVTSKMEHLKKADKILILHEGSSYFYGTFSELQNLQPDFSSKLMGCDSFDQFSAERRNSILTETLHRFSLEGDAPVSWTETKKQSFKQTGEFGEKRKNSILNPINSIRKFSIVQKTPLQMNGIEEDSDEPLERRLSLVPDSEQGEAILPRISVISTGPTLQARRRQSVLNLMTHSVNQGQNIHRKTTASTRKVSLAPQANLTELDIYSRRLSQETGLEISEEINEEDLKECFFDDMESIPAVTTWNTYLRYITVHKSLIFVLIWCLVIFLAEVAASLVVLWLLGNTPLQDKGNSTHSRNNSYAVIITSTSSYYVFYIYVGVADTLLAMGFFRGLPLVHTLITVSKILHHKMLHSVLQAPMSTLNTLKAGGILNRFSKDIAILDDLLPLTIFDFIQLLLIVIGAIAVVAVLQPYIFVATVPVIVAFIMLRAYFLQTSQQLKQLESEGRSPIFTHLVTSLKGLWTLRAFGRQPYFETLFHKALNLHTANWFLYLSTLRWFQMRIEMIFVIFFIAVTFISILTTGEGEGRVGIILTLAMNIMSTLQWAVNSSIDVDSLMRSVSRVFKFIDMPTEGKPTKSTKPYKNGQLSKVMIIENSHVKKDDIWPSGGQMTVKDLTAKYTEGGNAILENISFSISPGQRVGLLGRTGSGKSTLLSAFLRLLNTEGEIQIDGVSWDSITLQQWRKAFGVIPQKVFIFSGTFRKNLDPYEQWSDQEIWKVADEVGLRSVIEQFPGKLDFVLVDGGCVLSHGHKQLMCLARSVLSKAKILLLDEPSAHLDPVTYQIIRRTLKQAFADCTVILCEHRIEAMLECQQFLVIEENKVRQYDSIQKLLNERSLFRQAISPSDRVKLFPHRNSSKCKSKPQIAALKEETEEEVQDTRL

Emax [%]	EC50 [µM]	Structure (SMILES)
25 to 100	< 10	CC1(C)CCCN(c2ccc(NC(=O)c3c[nH]c4cnccc4c3=O)c(C(F)(F)F)c2)C1 [Cmpd 18, N-(4-(3,3-dimethylpiperidin-l-yl)-2-(trifluoromethyl)phenyl)-4-oxo-1,4-dihydro-1,7-naphthyridine-3-carboxamide]
25 to 100	< 10	O=C(Nc1cc2[nH]ccc2cc1C(F)(F)F)c1c[nH]c2cnccc2c1=O [Cmpd 14, 4-oxo-N-(5-(trifluoromethyl)-1H-indol-6-yl)-1,4-dihydro-1,7-naphthyridine-3-carboxamide]
25 to 100	< 10	O=C(Nc1ccc(N2CCCC2)cc1C(F)(F)F)c1c[nH]c2cnccc2c1=O [Cmpd 11, 4-oxo-N-(4-(pyrrolidin-1-yl)-2-(trifluoromethyl)phenyl)-1,4-dihydro-1,7-naphthyridine-3-carboxamide]
25 to 100	< 10	O=C(Nc1ccc(N2CCCC2)cc1C(F)(F)F)c1c[nH]c2ccncc2c1=O [Cmpd 7, 4-oxo-N-(4-(pyrrolidin-1-yl)-2-(trifluoromethyl)phenyl)-1,4-dihydro-1,6-naphthyridine-3-carboxamide]
25 to 100	< 10	Cc1cc2c(=O)c(C(=O)Nc3cc4[nH]ccc4cc3C(F)(F)F)c[nH]c2cn1 [Cmpd 15, 6-methyl-4-oxo-N-(5-(trifluoromethyl)-1H-indol-6-yl)-1,4-dihydro-1,7-naphthyridine-3-carboxamide]
25 to 100	< 10	C[C@H]1CCCN1c1ccc(NC(=O)c2c[nH]c3cnccc3c2=O)c(C(F)(F)F)c1 [Cmpd 12, (S)-N-(4-(2-methylpyrrolidin-1-yl)-2-(trifluoromethyl)phenyl)-4-oxo-1,4-dihydro-1,7-naphthyridine-3-carboxamide]
25 to 100	< 10	CC1(c2cc(F)c(NC(=O)c3c[nH]c4cnccc4c3=O)cc2O)CCCCC1 [Cmpd 13, N-(2-fluoro-5-hydroxy-4-(1-methylcyclohexyl)phenyl)-4-oxo-1,4-dihydro-1,7-naphthyridine-3-carboxamide]
25 to 100	< 10	O=C(Nc1ccc2c(C(F)(F)F)c[nH]c2c1)c1c[nH]c2cnccc2c1=O [Cmpd 16, 4-oxo-N-(3-(trifluoromethyl)-1H-indol-6-yl)-1,4-dihydro-1,7-naphthyridine-3-carboxamide]
25 to 100	< 10	CC(C)(C)c1cc2cc[nH]c2cc1NC(=O)c1c[nH]c2cnccc2c1=O [Cmpd 10, N-(5-tert-butyl-1H-indol-6-yl)-4-oxo-1,4-dihydro-1,7-naphthyridine-3-carboxamide]

The next lines start with the molecule.

Structure (SMILES)	Emax [%]	EC50 [µM]
O=C(NCC(c1ccccc1)c1ccccc1)c1c[nH]c2ccncc2c1=O [Cmpd 2, N-(2,2-diphenylethyl)-4-oxo-1,4-dihydro-1,6-naphthyridine-3-carboxamide]	25 to 100	< 10
O=C(Nc1ccc2cc[nH]c2c1)c1c[nH]c2ccncc2c1=O [Cmpd 6, N-(1H-indol-6-yl)-4-oxo-1,4-dihydro-1,6-naphthyridine-3-carboxamide]	< 25	< 10
CC(C)c1ccccc1NC(=O)c1c[nH]c2ccncc2c1=O [Cmpd 4, N-(2-isopropylphenyl)-4-oxo-1,4-dihydro-1,6-naphthyridine-3-carboxamide]	25 to 100	< 10
Cc1cc2c(=O)c(C(=O)Nc3cc(O)c(C4(C)CCCCC4)cc3F)c[nH]c2cn1 [Cmpd 17, N-(2-fluoro-5-hydroxy-4-(1-methylcyclohexyl)phenyl)-6-methyl-4-oxo-1,4-dihydro-1,7-naphthyridine-3-carboxamide]	< 25	10 to 25
CCCc1ccccc1NC(=O)c1c[nH]c2ccncc2c1=O [Cmpd 3, 4-oxo-N-(2-propylphenyl)-1,4-dihydro-1,6-naphthyridine-3-carboxamide]	25 to 100	< 10
O=C(NC(c1ccccc1)c1ccccc1)c1c[nH]c2ccncc2c1=O [Cmpd 1, N-benzhydryl-4-oxo-1,4-dihydro-1,6-naphthyridine-3-carboxamide]	> 100	< 10
O=C(Nc1ccccc1-c1ccccc1)c1c[nH]c2ccncc2c1=O [Cmpd 5, N-(biphenyl-2-yl)-4-oxo-1,4-dihydro-1,6-naphthyridine-3-carboxamide]	25 to 100	< 10
CC(C)(C)c1cc(C(C)(C)C)c(NC(=O)c2c[nH]c3cnccc3c2=O)cc1O [Cmpd 9, N-(2,4-di-tert-butyl-5-hydroxyphenyl)-4-oxo-1,4-dihydro-1,7-naphthyridine-3-carboxamide]	25 to 100	< 10
O=C(NCC1(c2ccc(OC(F)(F)F)cc2)CCCC1)c1c[nH]c2ccncc2c1=O [Cmpd 8, 4-oxo-N-((1-(4-(trifluoromethoxy)phenyl)-cyclopentyl)methyl)-1,4-dihydro-1,6-naphthyridine-3-carboxamide]	25 to 100	< 10
